Measurements from publication PMC6394990, “Detailed characterization of the solution kinetics and thermodynamics of biotin, biocytin and HABA binding to avidin and streptavidin” (PLoS ONE, 2019).
Where “and” joins values, the source holds several entries; their conditions need not be identical. Equal values may be shown once. Read-outs that look alike come from different tables or passages of the source.

Assays:
[1] = molecular target: T1, avidin (AV) (Gallus gallus, UniProt P02701); conditions: AV-B7, cited from earlier work
T1 construct: purchased Calbiochem (La Jolla, CA)

[2] = molecular target: T2, streptavidin (SAV) (Streptomyces avidinii, UniProt P22629); conditions: cited from earlier work
T2 construct: purchased Sigma Aldrich (St. Louis, MO)

[3] = molecular target: T2, streptavidin (SAV); assay: Literature calorimetry reaction thermodynamics; format: binding; conditions: SAV-B7, average of the reported values
[4] = molecular target: T2, streptavidin (SAV); assay: Quantum yields (QY), SAV complex; format: physicochemical; conditions: for dQY-SAV: fractional change of QY, SAV complex against dye
Description: (§1) The lifetimes (τ), steady state anisotropies (rss), time-resolved anisotropies (rt) and quantum yields (QY) of the complexes (at 20 ± 0.1°C and pH 8) were collected with a dye-labeled B7 probe concentration of 20–40 nM and 1040–2080 nM of either protein (AV or SAV) to ensure that only one binding site in the tetramer was filled with a ligand (AB1 filling model).
(§2) The QY values were obtained by using a reference fluorophore of known quantum yield and were calculated according to Parker and Rees, where the reference dye was fluorescein in 0.1N sodium hydroxide solution [46]. The emission fluorescence scans were collected from 480 nm to 700 nm with the excitation light set at 460 nm provided by the xenon arc lamp described above. These measurements were made on the AB1 complexes at high protein concentration.

[5] = Quantum yields (QY), unbound probe; format: physicochemical; conditions: unbound dye
Description: as §1, §2

[6] = molecular target: T2, streptavidin (SAV); assay: Time-resolved anisotropy, cone angle, SAV complex; format: physicochemical; conditions: complex with SAV
Description: as §1
The lifetimes were collected in a FluoTime100 fluorescence spectrometer (PicoQuant, GmbH, Berlin, Germany) with the excitation light source provided by a picosecond pulsed diode laser (PicoQuant, GmbH, Berlin, Germany) at 470 nm and 20 MHz. […] The fluorescence decays were fit by a nonlinear least-squares minimization based on the Marquardt algorithm embedded in the Fluofit software (PicoQuant GmbH). […] The PicoQuant G factor was calculated according to: G = ∫HV(t)dt/∫HH(t)dt, where HV(t) and HH(t) were the decays collected with the emission polarizer selecting vertical and horizontal E-vector passing orientations, respectively, and the excitation polarizer set at horizontally position. […]
(§3) In a simple model, the transition moment is assumed to wobble within a cone of semi-apical angle Ω [59], where the cone axis is normal to the surface of a sphere that corresponds to the macromolecule. The angle Ω is calculated from Eq 14.

[7] = molecular target: T1, avidin (AV); assay: Quantum yields (QY), AV complex; format: physicochemical; conditions: for Quantum Yield QY: AV complex (AB1); for dQY-AV: fractional change of QY, AV complex against dye
Description: as §1, §2

[8] = Fluorescence lifetimes, unbound probe; format: physicochemical; conditions: unbound dye; t for BFl and BcO, average lifetime for B-DNAds*Fl; in ns
Description: as §1
The lifetimes were collected in a FluoTime100 fluorescence spectrometer (PicoQuant, GmbH, Berlin, Germany) with the excitation light source provided by a picosecond pulsed diode laser (PicoQuant, GmbH, Berlin, Germany) at 470 nm and 20 MHz. The emission was collected at 520 nm through a non-fluorescing 520 nm interference filter (Oriel Corp., Stratford, CT) followed by a liquid filter of 1cm path length containing 24 mM acetate buffered dichromate at pH 4, between the sample and detector to eliminate traces of excitation light. The fluorescence decays were fit by a nonlinear least-squares minimization based on the Marquardt algorithm embedded in the Fluofit software (PicoQuant GmbH). […] The PicoQuant G factor was calculated according to: G = ∫HV(t)dt/∫HH(t)dt, where HV(t) and HH(t) were the decays collected with the emission polarizer selecting vertical and horizontal E-vector passing orientations, respectively, and the excitation polarizer set at horizontally position.

[9] = molecular target: T1, avidin (AV); assay: Time-resolved anisotropy, cone angle, AV complex; format: physicochemical; conditions: for Cone Angle Ω: AV complex (AB1), 20°C; for W: complex with AV
Description: as §1
(§4) The lifetimes were collected in a FluoTime100 fluorescence spectrometer (PicoQuant, GmbH, Berlin, Germany) with the excitation light source provided by a picosecond pulsed diode laser (PicoQuant, GmbH, Berlin, Germany) at 470 nm and 20 MHz. The emission was collected at 520 nm through a non-fluorescing 520 nm interference filter (Oriel Corp., Stratford, CT) followed by a liquid filter of 1cm path length containing 24 mM acetate buffered dichromate at pH 4, between the sample and detector to eliminate traces of excitation light. The fluorescence decays were fit by a nonlinear least-squares minimization based on the Marquardt algorithm embedded in the Fluofit software (PicoQuant GmbH). Twenty-eight decays were collected per sample, the decays were grouped in four sets, consisting of seven sample decays and one Instrument Response Function, IRF, for deconvolution proposes. The decay sets were globally fitted to mono- or bi-exponential decay models that were discriminated using the statistical parameter χ^2. The rt data were acquired with the fluorimeter described above equipped with a polarizer and an analyzer to acquire the parallel VV(t) and perpendicular VH(t) decays. The PicoQuant G factor was calculated according to: G = ∫HV(t)dt/∫HH(t)dt, where HV(t) and HH(t) were the decays collected with the emission polarizer selecting vertical and horizontal E-vector passing orientations, respectively, and the excitation polarizer set at horizontally position.
The r¯t values were calculated according to Eq 11 where the pre-exponential “f” corresponds to the slow phase that derives from the lifetime of the global motion (τG) which was fitted within a range of expected correlation time for the complex size; consequently, facilitating resolution of the fast correlation lifetime (τp) and the corresponding pre-exponential (1-f). r¯(t)=(1−f)∙exp(−t/τp)+f∙exp(−t/τG) (11) The f parameter was constrained to the observed rss (Eq 12) where F^(t) (Eq 13) is normalized (α1 + α2 = 1) and derived from the observed fluorescence decays of the complex. rss=0.4∫r¯(t)∙F^(t)dt (12) Where F^(t)=α1exp(−t/τ1)+α2exp(−t/τ2)/α1τ1+α2τ2 (13)
as §3

[10] = molecular target: T1, avidin (AV); assay: Fluorescence lifetimes, AV complex; format: physicochemical; conditions: for Lifetime τ: AV complex (AB1), 20°C, pH 8; for t (1), fluorescence lifetime: complex with AV, t for BFl and BcO, average lifetime for B-DNAds*Fl, in ns
Description: as §1, §4

T2 sequence (P22629 25-183): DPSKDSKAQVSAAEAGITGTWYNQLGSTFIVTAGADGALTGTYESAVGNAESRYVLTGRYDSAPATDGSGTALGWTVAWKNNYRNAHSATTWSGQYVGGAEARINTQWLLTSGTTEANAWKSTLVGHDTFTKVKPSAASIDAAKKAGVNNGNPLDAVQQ
T1 sequence (P02701 25-152): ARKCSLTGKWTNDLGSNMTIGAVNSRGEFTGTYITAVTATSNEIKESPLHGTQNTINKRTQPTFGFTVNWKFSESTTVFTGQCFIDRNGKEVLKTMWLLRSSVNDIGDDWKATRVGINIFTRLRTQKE

## O=C(O)CCCC[C@@H]1SC[C@@H]2NC(=O)N[C@@H]21 [B7, d-biotin]
[1]; ref 39
  ΔH°rxn: -26.7 kcal/mol and -26.7 36 kcal/mol
[1]; ref 39, listed as B
  ΔH°rxn: -26.7 20 kcal/mol
[1]; ref 76
  ΔG°rxn: -20.5 kcal/mol and -20.5 77 kcal/mol
  ΔH°rxn: -20.3 ± 0.3 kcal/mol and -20.3 ± 0.377 kcal/mol
[1]; ref 76, listed as B
  ΔG°rxn: -20.5 50 kcal/mol
  ΔH°rxn: -20.3 ± 0.3 50 kcal/mol
[1]; ref 77
  ΔH°rxn: -22.5 ± 0.1 kcal/mol and -22.5 ± 0.1 78 kcal/mol
[1]; ref 77, listed as B
  ΔH°rxn: -22.5 ± 0.1 52 kcal/mol
[1]; ref 78
  ΔG°rxn: -20.8 kcal/mol and -20.8 79 kcal/mol
  ΔH°rxn: -23.4 ± 0.3 kcal/mol and -23.4 ± 0.3 79 kcal/mol
  ΔS°rxn: -8.9 [78] cal/mol°K and -8.9 79 cal/mol°K
[1]; ref 78, listed as B
  ΔG°rxn: -20.8 51 kcal/mol
  ΔH°rxn: -23.4 ± 0.3 51 kcal/mol
  ΔS°rxn: -8.9 51 cal/mol°K
[2]; SAV-B7, calculated at 25°C
  ΔG° ^ǂ, Backward: 24.8 ± 0.3 kcal/mol and 24.8 ± 0.3 80,f kcal/mol
[2]; SAV-B7, calculated at 25°C, listed as B
  ΔG° ^ǂ, Backward: 24.8 ± 0.3 53,b kcal/mol
[2]; SAV-B7, calculated from the plotted data
  ΔS° ^ǂ, Backward: 29.9 ± 2.0 cal/mol°K and 29.9 ± 2.0 18 e cal/mol°K
[2]; SAV-B7, calculated from the plotted data, listed as B
  ΔS° ^ǂ, Backward: 29.9 ± 2.0 6,a cal/mol°K
[2]; SAV-B7, ref 39, 80, 82
  ΔS° ^ǂ, Backward: 18.8 ± 0.3 cal/mol°K and 18.8 ± 0.3 36,80,81 cal/mol°K
[2]; SAV-B7, ref 39, 80, 82, listed as B
  ΔS° ^ǂ, Backward: 18.8 ± 0.3 20, 53, 55 cal/mol°K
[2]; SAV-B7, ref 39, 80
  Ea^Backward: 30.4 ± 0.2 kcal/mol and 30.4 ± 0.2 36,80 kcal/mol
[2]; SAV-B7, ref 39, 80, listed as B
  Ea^Backward: 30.4 ± 0.2 20, 53 kcal/mol
[2]; SAV-B7, ref 39, 82
  ΔG° ^ǂ, Backward: 24.6 ± 0.3 kcal/mol and 24.6 ± 0.3 36,81 kcal/mol
[2]; SAV-B7, ref 39, 82, listed as B
  ΔG° ^ǂ, Backward: 24.6 ± 0.3 20, 55 kcal/mol
[2]; SAV-B7, ref 47
  ΔG° ^ǂ, Backward: 21.4 ± 2.0 kcal/mol and 21.4 ± 2.0 44 kcal/mol
[2]; SAV-B7, ref 47, listed as B
  ΔG° ^ǂ, Backward: 21.4 ± 1.0 6 kcal/mol
[2]; SAV-B7, ref 68
  koff replacement: 2.4e-06 s⁻¹
[2]; SAV-B7, ref 81
  Ea^Backward: 32.0 kcal/mol and 32 kcal/mol
  ΔS° ^ǂ, Backward: 25.8 cal/mol°K and 25.8 82 cal/mol°K
[2]; SAV-B7, ref 81, listed as B
  Ea^Backward: 32.0 56 kcal/mol
  ΔS° ^ǂ, Backward: 25.8 56 cal/mol°K
[2]; SAV-B7, ref 82
  Ea^Backward: 25.8 ± 1.2 kcal/mol and 25.8 ± 1.2 81 kcal/mol
[2]; SAV-B7, ref 82, listed as B
  Ea^Backward: 25.8 ± 1.2 55 kcal/mol
[2]; SPR, immobilized B7, 4°C
  kon: 5.1e+06 M⁻¹ s⁻¹
[2]; stopped-flow, tryptophan fluorescence quenching, 25°C and pH 7
  kon: 7.5 ± 0.6 × 10^7 M^-1s^-1
[3]
  ΔG°rxn, averaged value: -18.2 ± 0.2 kcal/mol
  ΔH°rxn, averaged value: -24.8 ± 2.0 kcal/mol
[3]; listed as B
  ΔG°rxn, averaged value: -18.2 ± 0.1 kcal/mol

## O=C(CCCC[C@@H]1SC[C@@H]2NC(=O)N[C@@H]21)NCCNC(=O)c1ccc(-c2c3ccc(=O)cc-3oc3cc(O)ccc23)c(C(=O)O)c1 [BFl, Biotin-4-fluorescein]
[4]; complex with SAV
  488, correction, absR/abs: 1.708
  QY: 0.11 and 0.11 ± 0.01
  QY multiplied by the 488 correction absR/abs: 0.1879
[4]
  dQY-SAV: -0.7885
[5]
  488, correction, absR/abs: 1
  QY: 0.52 and 0.52 ± 0.02
  QY multiplied by the 488 correction absR/abs: 0.52
[6]
  W: 51
[7]
  Quantum Yield QY: 0.44 ± 0.01
  dQY-AV: -0.1538
[7]; complex with AV
  488, correction, absR/abs: 1.171
  QY: 0.44 and 0.44 ± 0.01
  QY multiplied by the 488 correction absR/abs: 0.5154
[8]
  t (1), fluorescence lifetime: 4.03 ± 0.01
[9]
  Cone Angle Ω: 51 ± 2 degrees
  W: 51
[10]
  Lifetime τ: 4.22 ± 0.01 ns
  t (1), fluorescence lifetime: 4.22 ± 0.01

## NC(CCCCNC(=O)CCCC[C@@H]1SC[C@@H]2NC(=O)N[C@@H]21)C(=O)NCCCCCNC(=O)c1ccc(-c2c3cc(F)c(=O)cc-3oc3cc(O)c(F)cc23)c(C(=O)O)c1 (stereo partly drawn) [BcO, Oregon green 488 Biocytin]
[4]; SAV complex (AB1)
  Quantum Yield QY: 0.21 ± 0.01
[4]; complex with SAV
  QY: 0.21 ± 0.01 and 0.21
[4]
  dQY-SAV: -0.7692
[5]
  QY: 0.91 and 0.91 ± 0.02
[6]
  W: 50
[7]
  Quantum Yield QY: 0.62 ± 0.02
  dQY-AV: -0.3187
[7]; complex with AV
  QY: 0.62 and 0.62 ± 0.02
[8]
  t (1), fluorescence lifetime: 3.75 ± 0.04
[9]
  Cone Angle Ω: 50 ± 2 degrees
  W: 50
[10]
  Lifetime τ: 4.35 ± 0.01 ns
  t (1), fluorescence lifetime: 4.35 ± 0.01
